The target in the assay is T1, Recombinant ι-CgsA (Pseudoalteromonas carrageenovora, UniProt A0A2K4X859).
T1 construct: gene PCARR_a1089; without signal peptide (cleavage Ala22/Gln23 predicted in the Q3IKL4 ortholog), N-terminal 6 His-tag, pFO4 vector, E. coli BL21(DE3); primers for cloning deduced from the P. haloplanktis TAC 125 gene
Briefly: methylumbelliferone release, absorbance at […] nm; hyperbolic regression. Format: biochemical. Particulars: 35 °C, pH 8.3, 50 mM Tris-HCl, 200 mM NaCl; MUFS 5.2 to 206.5 μM; preliminary; read-out: Apparent Km.

In publication PMC4144425, “Discovery of a novel iota carrageenan sulfatase isolated from the marine bacterium Pseudoalteromonas carrageenovora” (Frontiers in Chemistry, 2014) one finds Km data, which are given here for one compound.

T1 sequence (A0A2K4X859 entry or part of it): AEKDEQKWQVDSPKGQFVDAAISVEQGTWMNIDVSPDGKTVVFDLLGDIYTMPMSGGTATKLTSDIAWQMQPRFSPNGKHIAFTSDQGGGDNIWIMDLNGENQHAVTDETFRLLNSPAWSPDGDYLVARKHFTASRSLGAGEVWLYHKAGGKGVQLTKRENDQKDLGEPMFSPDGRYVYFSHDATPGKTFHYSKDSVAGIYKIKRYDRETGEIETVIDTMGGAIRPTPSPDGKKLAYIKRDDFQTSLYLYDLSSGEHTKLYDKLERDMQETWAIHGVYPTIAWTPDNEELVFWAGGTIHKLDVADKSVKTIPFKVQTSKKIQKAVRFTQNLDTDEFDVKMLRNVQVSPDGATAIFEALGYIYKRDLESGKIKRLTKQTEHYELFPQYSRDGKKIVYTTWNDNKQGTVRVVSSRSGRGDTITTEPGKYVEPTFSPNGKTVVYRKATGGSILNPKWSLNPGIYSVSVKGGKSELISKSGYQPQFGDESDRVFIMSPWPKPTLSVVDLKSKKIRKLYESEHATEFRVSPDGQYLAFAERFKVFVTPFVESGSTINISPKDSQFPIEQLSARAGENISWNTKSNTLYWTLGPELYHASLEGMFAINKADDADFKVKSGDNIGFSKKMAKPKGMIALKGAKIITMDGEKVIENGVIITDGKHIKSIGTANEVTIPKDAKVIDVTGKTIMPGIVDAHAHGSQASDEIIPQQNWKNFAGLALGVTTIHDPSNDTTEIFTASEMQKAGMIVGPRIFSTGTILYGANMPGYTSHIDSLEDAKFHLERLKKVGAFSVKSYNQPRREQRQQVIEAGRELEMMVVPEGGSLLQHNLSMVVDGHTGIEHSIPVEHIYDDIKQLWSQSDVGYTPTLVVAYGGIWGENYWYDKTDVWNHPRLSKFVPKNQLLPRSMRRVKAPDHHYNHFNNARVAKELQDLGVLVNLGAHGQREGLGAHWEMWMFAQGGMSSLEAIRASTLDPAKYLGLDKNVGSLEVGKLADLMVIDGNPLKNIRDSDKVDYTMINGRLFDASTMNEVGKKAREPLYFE

As for `Cc1cc(=O)oc2cc(OS(=O)(=O)O)ccc12` [MUFS], the Km amounted to 13.4 ± 4.9 µM.

Broadly, the Km is the concentration of substrate that gives half-maximal velocity.
